Experimental data reported in US9770026B2, “Substituted pyrimidine compound and uses thereof” (Shenyang Sinochem Agrochemicals R&D Co., Ltd., priority 2012, dated 2017).

Assays:
[1] = test system: cucumber downy mildew; test: protectant activity in vivo against cucumber downy mildew; conditions: Cucumis sativus, 168 h, protectant activity; for pest or weed control at 25 µg/mL: read-out: control effect against cucumber downy mildew (%), 25 mg/L; for pest or weed control at 50 µg/mL: read-out: control effect against cucumber downy mildew (%), 50 mg/L; for pest or weed control at 100 µg/mL: read-out: control effect against cucumber downy mildew (%), 100 mg/L; for pest or weed control at 400 µg/mL: read-out: control effect against cucumber downy mildew (%), 400 mg/L
[2] = test system: cucumber gray mold; test: fungicidal activity in vitro (inhibition rate) against cucumber gray mold; format: cell-based; conditions: 25 ppm, in vitro; read-out: inhibition rate against cucumber gray mold
[3] = test system: wheat powdery mildew; test: protectant activity in vivo against wheat powdery mildew; conditions: Triticum aestivum, 168 h, protectant activity; for pest or weed control at 6.25 µg/mL: read-out: control effect against wheat powdery mildew (%), 6.25 mg/L; for pest or weed control at 25 µg/mL: read-out: control effect against wheat powdery mildew (%), 25 mg/L; for pest or weed control at 100 µg/mL: read-out: control effect against wheat powdery mildew (%), 100 mg/L; for pest or weed control at 400 µg/mL: read-out: control effect against wheat powdery mildew (%), 400 mg/L
[4] = test system: armyworm; test: bioactivity test against armyworm, airbrush spray; format: in vivo; conditions: 72 h, 600 mg/L; read-out: Insecticidal activity against armyworm (%)
[5] = test system: corn rust; test: protectant activity in vivo against corn rust; conditions: Zea mays, 168 h, protectant activity; for pest or weed control at 400 µg/mL: read-out: control effect against corn rust (%), 400 mg/L; for pest or weed control at 6.25 µg/mL: read-out: control effect against corn rust (%), 6.25 mg/L; for pest or weed control at 25 µg/mL: read-out: control effect against corn rust (%), 25 mg/L; for pest or weed control at 100 µg/mL: read-out: control effect against corn rust (%), 100 mg/L
[6] = test system: Diamond back moth; test: insecticidal activity against diamond back moth, airbrush spray; format: in vivo; conditions: 72 h, 600 mg/L
Method in brief: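 Airbrush leaf-disc spray test: both faces of 2 cm cabbage discs received 0.5 ml of test solution at 0.7 kg/cm^2. Solutions were made in acetone:methanol (1:1) and brought to concentration with 0.1% Tween 80 in water. Ten second-instar larvae per disc, triplicates, were held at 25° C and 60˜70% R.H., with mortality recorded at 72 hrs.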

[7] = test system: carmine spider mite; test: bioactivity test against carmine spider mite, airbrush spray; format: in vivo; conditions: Tetranychus cinnabarinus, 72 h, contrastive test, read-out: Insecticidal activity against carmine spider mite (% ); for pest or weed control at 600 µg/mL: 600 mg/L
Method in brief: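 Broadbean seedlings infested with adult mites were sprayed with compound (acetone/methanol stock diluted in 0.1% Tween 80 water) by airbrush at 0.7 kg/cm^2, 0.5 ml. Three replicates were run. Mortality was scored after 72 hrs.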

[8] = test system: Green peach aphids (Myzus Persicae Sulzer); test: bioactivity test against green peach aphid, airbrush foliar spray; format: in vivo; conditions: Myzus persicae, foliar, 48 h, contrastive test, read-out: Insecticidal activity against peach aphid (%); for pest or weed control at 10 µg/mL: 10 mg/L; for pest or weed control at 100 µg/mL: 100 mg/L; for pest or weed control at 600 µg/mL: 600 mg/L
Method in brief: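 Aphids (15-30 per cabbage leaf disc) on moist filter paper were airbrush-sprayed at 10 psi, 0.5 mL, with compound from acetone:methanol (1:1) diluted in water with 0.1% tween 80. Held at 25±1 C, 60±5% RH; survivors counted after 48 hrs to give death rates.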

Structure (SMILES) | pest or weed control at 400 µg/mL [1] [%] | inhibition at 25 ppm [2] [%] | pest or weed control at 6.25 µg/mL [3] [%] | pest or weed control at 25 µg/mL [3] [%] | pest or weed control at 100 µg/mL [3] [%] | pest or weed control at 400 µg/mL [3] [%] | pest or weed control at 600 µg/mL [4] [%] | pest or weed control at 400 µg/mL [5] [%] | pest or weed control at 600 µg/mL [6] [%] | pest or weed control at 600 µg/mL [7] [%] | pest or weed control at 10 µg/mL [8] [%] | pest or weed control at 100 µg/mL [8] [%] | pest or weed control at 600 µg/mL [8] [%] | pest or weed control at 6.25 µg/mL [5] [%] | pest or weed control at 25 µg/mL [5] [%] | pest or weed control at 100 µg/mL [5] [%] | further results
Cc1ncnc(NCc2ccc(Oc3ccc(C(F)(F)F)cc3)cc2)c1Cl [CK53, reference compound] | 100 | 0 | 0 | 0 | 80 | 100 | 0 | 0 | 0 | 100 | 34 | 66 | 84 | – | – | – | pest or weed control at 25 µg/mL [1]: 60%; pest or weed control at 50 µg/mL [1]: 85%; pest or weed control at 100 µg/mL [1]: 90%; pest or weed control at 10 µg/mL ([7]; 10 mg/L): 12%; pest or weed control at 100 µg/mL ([7]; 100 mg/L): 100%
CCc1ncnc(NC(=O)Cc2ccc(Oc3ccc(C(F)(F)F)cc3Cl)cc2)c1Cl [CK57, reference compound] | 50 | < 50 | – | – | – | 0 | 0 | 0 | 0 | 33 | – | – | 61 | – | – | – | –
Cc1nc(Cl)cc(NCCc2ccc(Oc3ccc(C(F)(F)F)cn3)cc2)n1 [CK67, reference compound] | 100 | 0 | – | – | – | 0 | 0 | 0 | 14 | 61 | 0 | 54 | 86 | – | – | – | pest or weed control at 25 µg/mL [1]: 0%; pest or weed control at 50 µg/mL [1]: 20%; pest or weed control at 100 µg/mL [1]: 60%
Cc1nc(Cl)cc(NCCc2ccc(Oc3ncc(C(F)(F)F)cc3Cl)cc2)n1 [CK68, reference compound] | 0 | 0 | – | – | – | 0 | 0 | 0 | 14 | 4 | – | – | 0 | – | – | – | –
FC(F)(F)c1cnc(Oc2ccc(CCNc3cc(Cl)ncn3)cc2)c(Cl)c1 [CK70, reference compound] | 100 | 0 | 0 | 0 | 0 | 98 | 0 | 100 | 0 | 13 | 0 | 0 | 81 | 0 | 10 | 30 | pest or weed control at 25 µg/mL [1]: 0%; pest or weed control at 50 µg/mL [1]: 30%; pest or weed control at 100 µg/mL [1]: 60%
CCOC(=O)c1ccc(Oc2ccc(CCNc3cc(Cl)ncn3)cc2)nc1 [CK74, reference compound] | 50 | 0 | – | – | – | 0 | 0 | 100 | 0 | 0 | 26 | 100 | 100 | 85 | 90 | 100 | –
CCOC(=O)c1ccc(Oc2ccc(CCNc3nc(Cl)ncc3Cl)cc2)nc1 [CK75, reference compound] | 60 | 0 | – | – | – | 0 | 0 | 0 | 0 | 0 | 0 | 0 | 100 | – | – | – | –
CCOC(=O)c1ccc(Oc2ccc(CCNc3cc(Cl)nc(C)n3)cc2)nc1 [CK76, reference compound] | 0 | 0 | – | – | – | 75 | 0 | 70 | 0 | 41 | – | – | 52 | – | – | – | –
COC(=O)c1ccc(Oc2ccc(CCNc3cc(Cl)ncn3)cc2)nc1 [CK77, reference compound] | 0 | 0 | 70 | 80 | 100 | 100 | 0 | 100 | 0 | 56 | – | – | 72 | 0 | 40 | 60 | –
COC(=O)c1ccc(Oc2ccc(CCNc3nc(Cl)ncc3Cl)cc2)nc1 [CK78, reference compound] | 0 | 0 | – | – | – | 0 | 0 | 0 | 0 | 17 | – | – | 0 | – | – | – | –
COC(=O)c1ccc(Oc2ccc(CCNc3cc(Cl)nc(C)n3)cc2)nc1 [CK79, reference compound] | 85 | 0 | – | – | – | 0 | 0 | 0 | 0 | 27 | 0 | 16 | 100 | – | – | – | –
FC(F)(F)c1cccnc1Oc1ccc(CCNc2cc(Cl)ncn2)cc1 [CK80, reference compound] | 85 | 0 | 0 | 0 | 80 | 100 | 0 | 100 | 0 | 6 | 16 | 40 | 87 | 0 | 20 | 85 | –
